Measured values from patent US12351580B2, “NLRP3 modulators” (Innate Tumor Immunity, Inc., priority 2017, dated 2025).

biological target: T1, TLR7 (Homo sapiens, UniProt Q9NYK1); assay: In vitro human TLR7 binding reporter assay (HEK-Blue, NF-kB/AP1-inducible SEAP); type: cell-based; settings: activity range symbols
T1 construct: host or cells: HEK-Blue cells (human HEK) co-expressing TLR7 and an NF-kB/AP1-inducible SEAP reporter
T1 sequence (Q9NYK1 27-1049): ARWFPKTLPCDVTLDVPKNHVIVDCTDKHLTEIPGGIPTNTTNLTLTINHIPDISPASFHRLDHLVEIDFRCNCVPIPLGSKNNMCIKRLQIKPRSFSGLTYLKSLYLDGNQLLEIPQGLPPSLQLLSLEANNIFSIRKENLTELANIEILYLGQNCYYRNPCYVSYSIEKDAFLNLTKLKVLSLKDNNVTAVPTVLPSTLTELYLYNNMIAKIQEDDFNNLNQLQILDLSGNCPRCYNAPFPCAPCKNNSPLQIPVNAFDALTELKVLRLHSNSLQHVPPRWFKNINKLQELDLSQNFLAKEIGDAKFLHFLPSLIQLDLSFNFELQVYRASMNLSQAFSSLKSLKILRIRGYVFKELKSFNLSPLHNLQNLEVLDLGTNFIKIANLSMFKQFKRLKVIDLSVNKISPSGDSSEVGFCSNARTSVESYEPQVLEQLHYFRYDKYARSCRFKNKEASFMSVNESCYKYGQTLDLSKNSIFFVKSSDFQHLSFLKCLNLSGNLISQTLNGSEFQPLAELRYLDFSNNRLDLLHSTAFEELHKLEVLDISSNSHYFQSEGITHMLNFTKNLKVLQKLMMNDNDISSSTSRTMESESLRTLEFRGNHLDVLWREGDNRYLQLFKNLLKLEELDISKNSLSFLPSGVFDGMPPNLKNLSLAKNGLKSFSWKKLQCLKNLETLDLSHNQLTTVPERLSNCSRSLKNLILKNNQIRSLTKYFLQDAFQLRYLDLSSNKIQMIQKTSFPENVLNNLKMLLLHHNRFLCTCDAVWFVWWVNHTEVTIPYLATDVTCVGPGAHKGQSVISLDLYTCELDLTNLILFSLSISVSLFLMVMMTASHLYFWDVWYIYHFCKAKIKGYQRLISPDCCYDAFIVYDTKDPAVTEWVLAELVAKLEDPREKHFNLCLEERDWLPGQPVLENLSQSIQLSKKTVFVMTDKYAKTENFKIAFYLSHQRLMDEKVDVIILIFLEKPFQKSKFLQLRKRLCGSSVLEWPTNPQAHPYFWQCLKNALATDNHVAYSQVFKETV
Method: In Vitro Human TLR7 and TLR8 Binding Reporter Assays
Logarithmically-growing human HEK-Blue cells co-expressing a TLR7 or TLR8 gene and a NF-kB/AP1-inducible SEAP (secreted embryonic alkaline phosphatase; Invivogen, San Diego, CA) reporter gene are added to individual wells of a 384-well plate (15,000 cells per 20 μL per well) and maintained for 24 h at 37° C., 5% CO2. Test compounds or DMSO are distributed to separate wells the next day using acoustic liquid handling technology (100 nL per well) and cells are subsequently incubated for 18 h at 37° C., 5% CO2. Cellular SEAP production is measured using an Envision plate reader instrument thirty minutes after adding freshly-made Quanti-Blue reagent (prepared by following manufacturer instructions; Invivogen, San Diego, CA) to the HEK-Blue TLR Nf-kB-SEAP cell reactions. All EC50 values (half-maximal effective concentration) are determined using proprietary data analysis software.

**Q.** How did the EC50 turn out when `CCN(Cc1nc2c(N)nc3cc(C4CC4)ccc3c2n1Cc1ccc(OC)cc1)C(C)=O` [Compound 190] was run?
**A.** > 100 µM

**Q.** With `COc1cccc(-c2ccc3c(c2)nc(N)c2nc(CN4CCCC4=O)[nH]c23)c1` [Compound 287, 1-[[4-amino-7-(3-methoxyphenyl)-1H-imidazo[4,5-c]quinolin-2-yl]methyl]pyrrolidin-2-one] as the molecule, how does the EC50 read?
**A.** > 100 µM

**Q.** Which EC50 does the source give for `CCN(Cc1nc2c(N)nc3cc(C(F)(F)F)ccc3c2n1CCCC(=O)OC)C(C)=O` [Compound 229] here?
**A.** > 100 µM

**Q.** `CCN(Cc1nc2c(N)nc3cc(C4=CCCC4)ccc3c2[nH]1)C(C)=O` [Compound 183] was tested. Which EC50 did it give?
**A.** > 100 µM

**Q.** Which EC50 does the source give for `CCOC(=O)c1cc2c(cc1Br)nc(N)c1nc(CN(CC)C(C)=O)[nH]c12` [Compound 198] here?
**A.** > 100 µM

**Q.** With `CCN(Cc1nc2c(N)nc3ccc(Br)cc3c2[nH]1)S(C)(=O)=O` [Compound 201] as the molecule, how does the EC50 read?
**A.** > 100 µM

**Q.** With `CCN(Cc1nc2c(N)nc3cc(Cl)ccc3c2n1CCCC(=O)N1CCCC1)C(C)=O` [Compound 222] as the molecule, how does the EC50 read?
**A.** > 100 µM

**Q.** `CCN(Cc1nc2c(N)nc3ccc(Br)cc3c2[nH]1)C(C)=O` [Compound 194] was tested. Which EC50 did it give?
**A.** > 100 µM

**Q.** Which EC50 does the source give for `CCN(Cc1nc2c(N)nc3ccccc3c2n1CCCC(=O)OC)C(C)=O` [Compound 164] here?
**A.** > 100 µM

**Q.** How did the EC50 turn out when `CCN(Cc1nc2c(N)nc3ccccc3c2n1CCC(=O)N1CCS(=O)(=O)CC1)C(=O)OC(C)(C)C` [Compound 223] was run?
**A.** 20 to 100 µM

**Q.** With `CN(C)C(=O)CCCn1c(CN2CCCC2=O)nc2c(N)nc3cc(Br)ccc3c21` [Compound 215] as the molecule, how does the EC50 read?
**A.** > 100 µM

**Q.** How did the EC50 turn out when `Nc1nc2cc(C3CCOCC3)ccc2c2[nH]c(CN3CCCC3=O)nc12` [Compound 298, 1-[[4-amino-7-(oxan-4-yl)-1H-imidazo[4,5-c]quinolin-2-yl]methyl]pyrrolidin-2-one] was run?
**A.** 1 to 20 µM

**Q.** How did the EC50 turn out when `Nc1nc2cc(-n3cccn3)ccc2c2[nH]c(CN3CCCC3=O)nc12` [Compound 295, 1-[(4-amino-7-pyrazol-1-yl-1H-imidazo[4,5-c]quinolin-2-yl)methyl]pyrrolidin-2-one] was run?
**A.** > 100 µM

**Q.** For `CCc1ccc2c(c1)nc(N)c1nc(CN(CC)C(C)=O)[nH]c12` [Compound 171, N-[(4-amino-7-ethyl-1H-imidazo[4,5-c]quinolin-2-yl)methyl]-N-ethylacetamide], which EC50 is on record?
**A.** 1 to 20 µM

**Q.** Which EC50 does the source give for `CC(c1nc2c(N)nc3cc(Br)ccc3c2[nH]1)N1CCCC1=O` (centres unmarked) [Compound 303, 1-[1-(4-amino-7-bromo-1H-imidazo[4,5-c]quinolin-2-yl)ethyl]pyrrolidin-2-one] here?
**A.** 20 to 100 µM

**Q.** With `CCN(Cc1nc2c(N)nc3ccccc3c2n1CCC(=O)N1CCN(C(=O)OC(C)(C)C)CC1)C(C)=O` [Compound 212] as the molecule, how does the EC50 read?
**A.** > 100 µM

**Q.** Which EC50 does the source give for `CCN(Cc1nc2c(N)nc3ccccc3c2n1CCC(=O)N1CCOCC1)C(=O)OC(C)(C)C` [Compound 205] here?
**A.** > 100 µM

**Q.** For `Nc1nc2ccccc2c2[nH]c(CN3CCCC3=O)nc12` [Compound 278], which EC50 is on record?
**A.** 20 to 100 µM

**Q.** Which EC50 does the source give for `COc1ccc(-c2ccc3c(c2)nc(N)c2nc(CN4CCCC4=O)[nH]c23)cc1` [Compound 230] here?
**A.** > 100 µM

**Q.** `CCN(Cc1nc2c(N)nc3cc(C)ccc3c2[nH]1)C(C)=O` [Compound 104] was tested. Which EC50 did it give?
**A.** > 100 µM

**Q.** With `CCN(Cc1nc2c(N)nc3cc(-n4cccn4)ccc3c2[nH]1)S(C)(=O)=O` [Compound 108, N-((4-Amino-7-(1H-pyrazol-1-yl)-1H-imidazo[4,5-c]quinolin-2-yl)methyl)-N-ethylmethanesulfonamide] as the molecule, how does the EC50 read?
**A.** > 100 µM

**Q.** How did the EC50 turn out when `CCN(Cc1nc2c(N)nc3cc(-c4ccncc4)ccc3c2[nH]1)C(C)=O` [Compound 167, N-[(4-amino-7-pyridin-4-yl-1H-imidazo[4,5-c]quinolin-2-yl)methyl]-N-ethylacetamide] was run?
**A.** > 100 µM

**Q.** With `CCN(Cc1nc2c(N)nc3cc(Cl)ccc3c2[nH]1)C(C)=O` [Compound 179, N-[(4-amino-7-chloro-1H-imidazo[4,5-c]quinolin-2-yl)methyl]-N-ethylacetamide] as the molecule, how does the EC50 read?
**A.** > 100 µM

**Q.** For `CCN(Cc1nc2c(N)nc3ccc(Cl)cc3c2[nH]1)C(C)=O` [Compound 197], which EC50 is on record?
**A.** > 100 µM

**Q.** For `Cc1ccc(-c2ccc3c(c2)nc(N)c2nc(CN4CCCC4=O)[nH]c23)cc1` [Compound 291, 1-[[4-amino-7-(4-methylphenyl)-1H-imidazo[4,5-c]quinolin-2-yl]methyl]pyrrolidin-2-one], which EC50 is on record?
**A.** > 100 µM

**Q.** For `CCN(Cc1nc2c(N)nc3ccc(Br)cc3c2[nH]1)S(=O)(=O)c1ccc(C)cc1` [Compound 202], which EC50 is on record?
**A.** > 100 µM

**Q.** Which EC50 does the source give for `CCN(Cc1nc2c(N)nc3cc(Cl)ccc3c2n1CCCC(=O)OC)C(C)=O` [Compound 219] here?
**A.** > 100 µM

**Q.** Which EC50 does the source give for `Nc1nc2cc(Br)ccc2c2[nH]c(CN3CCCC3=O)nc12` [Compound 294, 1-[(4-amino-7-bromo-1H-imidazo[4,5-c]quinolin-2-yl)methyl]pyrrolidin-2-one] here?
**A.** 20 to 100 µM

**Q.** Which EC50 does the source give for `CCN(Cc1nc2c(N)nc3cc(Br)ccc3c2n1CCCC(=O)N(C)C)C(C)=O` [Compound 213] here?
**A.** > 100 µM

**Q.** For `Cc1ccccc1-c1ccc2c(c1)nc(N)c1nc(CN3CCCC3=O)[nH]c12` [Compound 282, 1-[[4-amino-7-(2-methylphenyl)-1H-imidazo[4,5-c]quinolin-2-yl]methyl]pyrrolidin-2-one], which EC50 is on record?
**A.** > 100 µM

**Q.** `CCN(Cc1nc2c(N)nc3cc(Br)ccc3c2n1CCCC(=O)OC)C(C)=O` [Compound 218] was tested. Which EC50 did it give?
**A.** > 100 µM

**Q.** With `CCNCc1nc2c(N)nc3cc(-c4cc[nH]n4)ccc3c2n1C` [Compound 106, 2-((Ethylamino)methyl)-1-methyl-7-(1H-pyrazol-3-yl)-1H-imidazo[4,5-c]quinolin-4-amine] as the molecule, how does the EC50 read?
**A.** > 100 µM

**Q.** Which EC50 does the source give for `Nc1nc2cc(-c3ccccc3Cl)ccc2c2[nH]c(CN3CCCC3=O)nc12` [Compound 281, 1-[[4-amino-7-(2-chlorophenyl)-1H-imidazo[4,5-c]quinolin-2-yl]methyl]pyrrolidin-2-one] here?
**A.** > 100 µM

**Q.** Which EC50 does the source give for `N#Cc1cccc(-c2ccc3c(c2)nc(N)c2nc(CN4CCCC4=O)[nH]c23)c1` [Compound 288, 3-[4-amino-2-[(2-oxopyrrolidin-l-yl)methyl]-1H-imidazo[4,5-c]quinolin-7-yl]benzonitrile] here?
**A.** > 100 µM

**Q.** With `CCN(Cc1nc2c(N)nc3cc(Br)ccc3c2n1CCCC(=O)N1CCOCC1)C(C)=O` [Compound 214] as the molecule, how does the EC50 read?
**A.** > 100 µM

**Q.** How did the EC50 turn out when `CCCn1cc(-c2ccc3c(c2)nc(N)c2nc(CN(CC)C(C)=O)[nH]c23)cn1` [Compound 169, N-[[4-amino-7-(1-propylpyrazol-4-yl)-1H-imidazo[4,5-c]quinolin-2-yl]methyl]-N-ethylacetamide] was run?
**A.** > 100 µM

**Q.** Which EC50 does the source give for `CCN(Cc1nc2c(N)nc3ccccc3c2[nH]1)C(C)=O` [Compound 176] here?
**A.** > 100 µM

**Q.** With `CCN(Cc1nc2c(N)nc3cc(Br)ccc3c2n1CCCC(=O)NC)C(C)=O` [Compound 210] as the molecule, how does the EC50 read?
**A.** > 100 µM

**Q.** `Cc1cnn(-c2ccc3c(c2)nc(N)c2nc(CN4CCCC4=O)[nH]c23)c1` [Compound 296, 1-[[4-amino-7-(4-methylpyrazol-1-yl)-1H-imidazo[4,5-c]quinolin-2-yl]methyl]pyrrolidin-2-one] was tested. Which EC50 did it give?
**A.** > 100 µM

**Q.** For `CCN(Cc1nc2c(N)nc3cc(N4CCNC4=O)ccc3c2n1Cc1ccc(OC)cc1)C(C)=O` [Compound 196], which EC50 is on record?
**A.** > 100 µM

**Q.** How did the EC50 turn out when `CCN(Cc1nc2c(N)nc3ccc(Br)cc3c2[nH]1)C(=O)C(C)C` [Compound 203] was run?
**A.** > 100 µM

**Q.** `CCN(Cc1nc2c(N)nc3ccccc3c2n1CCC(=O)N1CCN(C(=O)OC(C)(C)C)CC1)C(=O)OC(C)(C)C` [Compound 211] was tested. Which EC50 did it give?
**A.** > 100 µM

**Q.** How did the EC50 turn out when `Nc1nc2cc(-c3cccnc3)ccc2c2[nH]c(CN3CCCC3=O)nc12` [Compound 279, 1-[(4-amino-7-pyridin-3-yl-1H-imidazo[4,5-c]quinolin-2-yl)methyl]pyrrolidin-2-one] was run?
**A.** > 100 µM

**Q.** How did the EC50 turn out when `CCN(Cc1nc2c(N)nc3ccc(Br)cc3c2[nH]1)C(=O)c1ccccc1` [Compound 204] was run?
**A.** > 100 µM

**Q.** For `CCN(Cc1nc2c(N)nc3cc(C(F)(F)F)ccc3c2n1CCCC(=O)N1CCOCC1)C(=O)OC(C)(C)C` [Compound 228], which EC50 is on record?
**A.** > 100 µM

**Q.** For `Nc1nc2cc(C3CCCCC3)ccc2c2[nH]c(CN3CCCC3=O)nc12` [Compound 302, 1-[(4-amino-7-cyclohexyl-1H-imidazo[4,5-c]quinolin-2-yl)methyl]pyrrolidin-2-one], which EC50 is on record?
**A.** > 100 µM

**Q.** For `COC(=O)CCCn1c(CN(C)C(C)=O)nc2c(N)nc3ccccc3c21` [Compound 188], which EC50 is on record?
**A.** > 100 µM
